According to patent US20200347347A1, “COMPOSITIONS AND METHODS FOR IMPROVED GAMETE VIABILITY AND FUNCTION” (Premium Genetics [UK] Ltd., priority 2017, published 2020):

Tests used:
[1] = test system: sperm cells; assay: Outgoing quality control: progressively motile cells per straw after freeze-thaw; format: cell-based, bovine; conditions: NaF 0-6 mM in SVFEM
Protocol: After 90 minutes of equilibration at 4° C. the samples were cryoprotected by adding TRIS B (which contains glycerol) to a final concentration of 20% v/v of sample in 3 separate additions, 15 minutes apart. The concentration of progressively motile cells was determined using the Hamilton Thorne IVOS II with HTCasa Animal Breeders II software set to the same capture settings listed above, but with a Xenon light source and an Olympus 10× UplanSApo objective. The cryoprotected sample was diluted to final live, motile cell concentration, 2.5 M/mL, in Packaging Extender and placed in Mini Straws which hold 0.25 mL volume (IMV technologies, Maple Grove, Minn. USA) using an MX4 straw filling and sealing machine (IMV technologies, Maple Grove, Minn. USA). Filled straws were rapidly cooled using a freeze tunnel before storage in liquid nitrogen.
Outgoing Quality Control Assessment: To assess the number of motile cells that survived the freezing process a single straw is thawed in a 37° C. water bath for 45 seconds. The straw is then plunged into a pre-warmed Eppendorf tube. The sample is then gently vortexed 10 seconds to homogenize the sample. After which 20 μLs of sample is added to 20 μLs of QC diluent, gently vortexed for 5 seconds, and read on the CASA fluorescent settings described above.

[2] = test system: sperm cells; assay: Progressive motility of extended ejaculate stored at 19° C. (CASA); format: cell-based, bovine; conditions: SVFEM supplemented with 3 mM NaF normalized to 0 mM NaF; 24 hours; N=8
Protocol: Progressive motile % was determined using a CASA system. N=10 paired ejaculates.
Ejaculate extension and Incoming Quality Assessment: The volume of the ejaculate was determined using a serological pipette and evenly divided into two tubes. Immediately, within 15 minutes, the SVFEM extender was added in a 1:1 ratio to the SVFEM extended half of the split ejaculate. […] On arrival, GTLS antibiotic solution was added at a 2% v/v of ejaculate.
Within 45 minutes of initial ejaculate collection, the cell concentration and incoming motility parameters were collected. Concentration was determined using a Nucleocounter SP-100™ with Reagent S100 and SP100 cassettes (ChemoMetec Allerod, Denmark). Motility characteristics were calculated by diluting 10 μL sample in 990 μL motility diluent and reading 7 frames each in 2 chambers of Leja 4 chamber capillary slides with a known chamber depth on a Hamilton Thorne IVOS II using HTCasa II software at 60 Hz frame capture speed in a 37° C. enclosed stage with a Zeiss 1× objective.

[3] = test system: sperm cells; assay: Motility of semen samples after 24-hour storage in media (Examples 4-7, 10, 11); format: cell-based, Angus bull; conditions: Example 10; samples stored for 24 hours
Protocol: Semen sample creation: The media of Example 1 is mixed with semen in a 1:1 volume ratio. Optimal performance is seen when the media was warmed to 37° C. prior to mixing with Angus bull semen, and when the media is added to semen between 10 and 30 minutes post-ejaculation. The media remains effective, however, when mixed with cells 1 hour after ejaculation. After the addition of the media, cells are stored at 19° C. […] In FIG. 33 p=0.017, in a paired t-test. […] Semen samples from Angus bulls (n=4) were taken and tested at the collection, then after storing in the media of Example 1 (SVFEM) for 24 hours. […] Another test was performed to compare samples after 24-hour storage. Semen samples from Angus bulls (n=10) were taken and combined with media. Samples using the inventive media SVFEM were compared to control samples using conventional media. Samples were analyzed to determine whether motility of cells was lost due to storage.

Row | Molecule | number of motile cells which survive a freeze/thaw after 24 hours' extension [1] | fall of % progressive motile cells after staining below paired SVFEM group [2] | effect of eliminating the ingredient from SVFEM on motility [3]
1 | [F-].[Na+] [NaF, sodium fluoride] | improved efficacy | at least 20% | 
2 | phosphatidylserine [PS] |  |  | drop in motility
